Results: patent US20220389013A1, “PYRIDOPYRIMIDINONE COMPOUNDS AND APPLICATIONS THEREOF” (BeBetter Med Inc., priority 2020, published 2022)

Legend:
MIA-Paca2 (KRAS G12C) = assay: Tumor cell proliferation inhibition assay (CellTiter-Glo), MIA-Paca2; type: cell-based, Human; conditions: Homo sapiens, MIA PaCa-2, 72 h, 10% fetal bovine serum
Method: (§1) The H358, H23 or MIA-Paca2 cells were digested, centrifuged and resuspended, and the cell density was measured with a Scepter automatic cell counter. Cells were diluted to a solution containing 44,000 cells per milliliter, then added to a 96-well culture plate at 90 μL per well. The 96-well plate was placed in a 5% CO2 incubator at 37° C., and after the cells were cultured for 24 hours, different concentrations of the compounds to be tested were added. Cells were incubated with compounds in the presence of 10% fetal bovine serum for 72 hours. The inhibition of cell growth was assessed by measuring ATP levels by using the CellTiter-Glo Luminescent Cell Viability Assay Kit (details in manufacturer's instructions). In brief, 30 μL of CellTiter-Glo reagent was added to each well and the plate was shaken for 10 minutes to induce cell lysis, then the fluorescent signal was detected and recorded with a Fluoroskan Ascent FL (Thermo). Maximum signal values were obtained from cells treated with DMSO for 72 hours. Minimum signal values were obtained with medium only (zero cell number). Inhibition rate %=(maximum signal value-compound signal value)/(maximum signal value-minimum signal value)×100%. Data were processed by using Graphpad prism5 software. IC50 values were calculated using a sigmoidal dose-response curve.

H358 (KRAS G12C) = assay: Tumor cell proliferation inhibition assay (CellTiter-Glo), H358; type: cell-based, Human; conditions: Homo sapiens, NCI-H358, 72 h, 10% fetal bovine serum
Method: as §1

| Compound | IC50 (MIA-Paca2 (KRAS G12C)) [nM] | melting point [°C] | IC50 (H358 (KRAS G12C)) [nM] |
| --- | --- | --- | --- |
| C=CC(=O)N1CCN(c2nc(=O)n(-c3c(C)ccnc3C(C)C)c3nc(-c4c(F)ccc5ccsc45)c(F)cc23)[C@@H](C)C1 [Compound 71, 4-((S)-4-Acryloyl-2-methylpiperazin-1-yl)-6-fluoro-7-(6-fluorobenzo[b]thiophen-7-yl)-1-(2-isopropyl-4-methylpyridin-3-yl)pyrido[2,3-d]pyrimidin-2(1H)-one] | 50 to 100 | 148 to 150 | 10 to 50 |
| C=CC(=O)N1CCN(c2nc(=O)n(-c3c(C)ccnc3C(C)C)c3nc(-c4c(F)ccc5ncsc45)c(F)cc23)[C@@H](C)C1 [Compound 78, 4-((S)-4-acryloyl-2-methylpiperazin-1-yl)-6-fluoro-7-(6-fluorobenzo[d]thiazol-7-yl)-1-(2-isopropyl-4-methylpyridin-3-yl)pyrido[2,3-d]pyrimidin-2(1H)-one] | > 500 | 158 to 162 | 100 to 500 |
| C=CC(=O)N1CCN(c2nc(=O)n(-c3c(C)ccnc3C(C)C)c3nc(-c4c(C)ccc5ccoc45)c(F)cc23)[C@@H](C)C1 [Compound 108, 4-((S)-4-acryloyl-2-methylpiperazin-1-yl)-6-fluoro-1-(2-isopropyl-4-methylpyridin-3-yl)-7-(6-methylbenzofuran-7-yl)pyrido[2,3-d]pyrimidin-2(1H)-one] | 100 to 500 | 151 to 163 | 10 to 50 |
| C=CC(=O)N1CCN(c2nc(=O)n(-c3c(C)ccnc3C(C)C)c3nc(-c4c(OC)ccc5ccoc45)c(F)cc23)[C@@H](C)C1 [Compound 109, 4-((S)-4-acryloyl-2-methylpiperazin-1-yl)-6-fluoro-1-(2-isopropyl-4-methylpyridin-3-yl)-7-(6-methoxybenzofuran-7-yl)pyrido[2,3-d]pyrimidin-2(1H)-one] | 100 to 500 | 156 to 158 | 50 to 100 |
| C/C=C/C(=O)N1CCN(c2nc(=O)n(-c3c(C)ccnc3C(C)C)c3nc(-c4cc5ccoc5cc4F)c(F)cc23)[C@@H](C)C1 [Compound 113, (S,E)-4-(4-(but-2-enoyl)-2-methylpiperazin-1-yl)-6-fluoro-7-(6-fluorobenzofuran-5-yl)-1-(2-isopropyl-4-methylpyridin-3-yl)pyrido[2,3-d]pyrimidin-2(1H)-one] | > 500 | 155 to 157 | > 500 |
| Cc1ccnc(C(C)C)c1-n1c(=O)nc(N2CCN(C(=O)/C=C/CN(C)C)C[C@@H]2C)c2cc(F)c(-c3cc4ccoc4cc3F)nc21 [Compound 114, (S,E)-4-(4-(4-(dimethylamino)but-2-enoyl)-2-methylpiperazin-1-yl)-6-fluoro-7-(6-fluorobenzofuran-5-yl)-1-(2-isopropyl-4-methylpyridin-3-yl)pyrido[2,3-d]pyrimidin-2(1H)-one] | > 500 | 162 to 164 | > 500 |
| COC/C=C/C(=O)N1CCN(c2nc(=O)n(-c3c(C)ccnc3C(C)C)c3nc(-c4cc5ccoc5cc4F)c(F)cc23)[C@@H](C)C1 [Compound 115, (S,E)-6-fluoro-7-(6-fluorobenzofuran-5-yl)-1-(2-isopropyl-4-methylpyridin-3-yl)-4-(4-(4-methoxybut-2-enoyl)-2-methylpiperazin-1-yl)pyrido[2,3-d]pyrimidin-2(1H)-one] | > 500 | 136 to 138 | > 500 |
| C=CC(=O)N1CCN(c2nc(=O)n(-c3c(C)ncnc3C(C)C)c3nc(-c4c(F)ccc5ccoc45)c(F)cc23)[C@@H](C)C1 [Compound 116, 4-((S)-4-acryloyl-2-methylpiperazin-1-yl)-6-fluoro-7-(6-fluorobenzofuran-7-yl)-1-(4-isopropyl-6-methylpyrimidin-5-yl)pyrido[2,3-d]pyrimidin-2(1H)-one] | 100 to 500 | 143 to 146 | 50 to 100 |
| C=CC(=O)N1CCN(c2nc(=O)n(-c3c(C)nc(C)nc3C(C)C)c3nc(-c4c(F)ccc5ccoc45)c(F)cc23)[C@@H](C)C1 [Compound 117, 4-((S)-4-acryloyl-2-methylpiperazin-1-yl)-6-fluoro-7-(6-fluorobenzofuran-7-yl)-1-(4-isopropyl-2,6-dimethylpyrimidin-5-yl)pyrido[2,3-d]pyrimidin-2(1H)-one] | 50 to 100 | 133 to 136 | 50 to 100 |
| C=CC(=O)N1CCN(c2nc(=O)n(-c3c(C(C)C)ncnc3C(C)C)c3nc(-c4c(F)ccc5ccoc45)c(Cl)cc23)[C@@H](C)C1 [Compound 118, 4-((S)-4-acryloyl-2-methylpiperazin-1-yl)-6-chloro-1-(4,6-diisopropylpyrimidin-5-yl)-7-(6-fluorobenzofuran-7-yl)pyrido[2,3-d]pyrimidin-2(1H)-one] | – | 254 to 256 | < 10 |
| C=CC(=O)N1CCN(c2nc(=O)n(-c3c(C#N)cccc3C(C)C)c3nc(-c4c(F)ccc5ccoc45)c(F)cc23)[C@@H](C)C1 [Compound 123, 2-(4-((S)-4-acryloyl-2-methylpiperazin-1-yl)-6-fluoro-7-(6-fluorobenzofuran-7-yl)-2-oxopyrido[2,3-d]pyrimidin-1(2H)-yl)-3-isopropylbenzonitrile] | 50 to 100 | 146 to 149 | 10 to 50 |
| C=CC(=O)N1CCN(c2nc(=O)n(-c3c(C#N)cccc3C(C)C)c3nc(-c4c(F)ccc5ccoc45)c(Cl)cc23)[C@@H](C)C1 [Compound 124, 2-(4-((S)-4-acryloyl-2-methylpiperazin-1-yl)-6-chloro-7-(6-fluorobenzofuran-7-yl)-2-oxopyrido[2,3-d]pyrimidin-1(2H)-yl)-3-isopropylbenzonitrile] | 10 to 50 | 164 to 166 | < 10 |
| C=CC(=O)N1CCN(c2nc(=O)n(-c3c(CO)cccc3C(C)C)c3nc(-c4c(F)ccc5ccoc45)c(F)cc23)[C@@H](C)C1 [Compound 126, 4-((S)-4-acryloyl-2-methylpiperazin-1-yl)-6-fluoro-7-(6-fluorobenzofuran-7-yl)-1-(2-(hydroxymethyl)-6-isopropylphenyl)pyrido[2,3-d]pyrimidin-2(1H)-one] | 100 to 500 | 146 to 149 | 50 to 100 |
